Experimental findings from patent US12605350B2, “Composition for preventing, ameliorating, or treating disease caused by nitration of tyrosine in proteins comprising tyrosine as effective component” (INDUSTRY-ACADEMIC COOPERATION FOUNDATION GYEONGSANG …, priority 2020, dated 2026) are described below.

The subject of experiment [1] is high-fat diet mouse model of type 2 diabetes. In words: glucose tolerance test. In kind it is in vivo. Particulars: HFD+L-Tyr vs HFD; 16 hours fasting, glucose 2 g per 1 kg i.p., 30-120 minutes. As for the experimental part: Twenty-seven C57BL/6 male mice (3-week old) were acclimated to the breeding condition for 1 week. […] Blood glucose was measured every week.
D-glucose was dissolved in 1×PBS to prepare 40% D-glucose solution. Blood glucose of a mouse, which has been subjected to fasting for 16 hours, was measured, and, for having intraperitoneal injection of glucose in an amount of 2 g per 1 kg bodyweight, the animal was intraperitoneally injected with the glucose solution according to the following Formula (1). Glucose injection amount(μl)=Bodyweight(g)×5 Formula (1)
For example, for a mouse with bodyweight of 45 g, 225 μl of 40% glucose solution were injected. After the intraperitoneal injection of glucose solution, blood glucose was measured at time points of 30, 60, 90 and 120 minutes.

The subject of experiment [2] is mouse model of stroke using endothelin-1. In words: brain infarction (cresyl violet staining) in endothelin-1 stroke model. In kind it is in vivo. To be noted: endothelin-1 (2 μg) to cerebral motor cortex, tyrosine 900 mg/kg (feed weight). As for the experimental part:
To de-ionized water, endothelin-1 was added (2 μg/μl), and, after vigorous vortexing, completely dissolved by ultrasonication at 4° C. for about 10 minutes.
The mouse was anesthetized by intraperitoneal injection of avertin as an anesthetic (0.5 ml/25 g of mouse bodyweight). Thereafter, endothelin-1 was injected (2 μg) to the cerebral motor cortex area (with bregma at the center, AP 1.5 mm, ML-1.5 mm, and DV 1.8 mm) by stereotaxic surgery. The injection was made at speed of 0.3 μl per minute. The needle was left for about 5 minutes after completing the injection so that endothelin-1 can be fully absorbed in animal tissues. After suturing the skin, the animal was allowed to recover in the original cage.
Perfusion with PBS and PFA was carried out, via animal heart and the brain was removed and post-fixed in PFA for 15 hours or longer. After washing 3 times for 10 minutes with PBS, brain tissue specimen with thickness of 40 μm was obtained using a vibratome. Then, four specimens collected from the area injected with endothelin-1 were fixed on a silane-coated glass slide. […] The stained specimen sample was observed under an optical microscope, and, with the stored image, the area showing brain infarction was calculated by using Image J analysis program.

Experiment [3] addresses T1, glutamine synthetase (GS) (Mus musculus, UniProt P15105).
T1 construct: PFC sample was weighed first, and, after lysis of the tissues by using Bullet homogenizer, subjected to centrifuge; from tissue; host or cells: mouse prefrontal cortex (PFC) lysate
Kind of experiment: in vitro GS activity of PFC tissue lysate treated with nitrogen peroxide (PN) and tyrosine. Type of experiment: biochemical. To be noted: PFC tissue lysate (10 μg), 0.0031 to 0.45 mg/ml tyrosine, nitrogen peroxide (PN) 10 times the tissue lysate. As for the experimental part:
Each of the blood and PFC sample was obtained from a mouse anesthetized with CO2 gas. Specifically, mouse blood was collected between 9 AM and 11 AM and stored in a K3EDTA-coated vacuum container. Plasma was obtained by centrifuge for 10 minutes at 4° C., 500×g. PFC sample was weighed first, and, after lysis of the tissues by using Bullet homogenizer, subjected to centrifuge for 20 minutes at 4° C., 12,000 rpm. Thus-obtained plasma and tissue lysate were kept at −80° C. until use.
10 μg of the lysate were admixed with […] of GS assay buffer solution (50 mM imidazole-HCl, pH 6.8, 50 mM L-glutamine, 25 mM hydroxylamine, 25 mM sodium arsenate, 2 mM MnCl2 and 0.16 mM ADP), followed by incubation for 1 hour at 37° C.
After the mixing, the reaction was terminated by adding 50 μl of stop buffer solution (90 mM FeCl3, 1.8 N HCl and 1.45% trichloroacetic acid), and then γ-glutamylhydroxamate synthesized from a reaction between glutamine and hydroxylamine as catalyzed by GS was measured at 560 nm using a microplate reader.
Moreover, after PFC (prefrontal cortex) tissue lysate (10 μg) was added and mixed with 0.0031 to 0.45 mg/ml tyrosine, incubated on ice for 10 minutes, and added with nitrogen peroxide (PN), in an amount that is 10 times the tissue lysate, followed by incubation for 10 minutes, in vitro GS activity was examined.

Experiment [4] relates to chronic immobilization stress group (STR). Kind of experiment: corticosterone amount in plasma (ELISA), chronic immobilization stress. Type of experiment: in vivo, mouse. Particulars: tyrosine diet (181.2 mg/kg) compared to normal diet, p<0.05. As for the experimental part:
(§1) Each of the blood and PFC sample was obtained from a mouse anesthetized with CO2 gas. Specifically, mouse blood was collected between 9 AM and 11 AM and stored in a K3EDTA-coated vacuum container. Plasma was obtained by centrifuge for 10 minutes at 4° C., 500×g. PFC sample was weighed first, and, after lysis of the tissues by using Bullet homogenizer, subjected to centrifuge for 20 minutes at 4° C., 12,000 rpm. Thus-obtained plasma and tissue lysate were kept at −80° C. until use. After that, the animal was sacrificed, and a change in corticosterone amount in plasma was examined. ROS/RNS in plasma and PFC was also examined. The corticosterone amount was examined using an ELISA kit (Cayman) by following the manufacturer's protocol, and ROS/RNS was also examined using an ROS/RNS assay kit (Cell Biolabs, San Diego, CA, USA) by following the manufacturer's protocol. The animal models were divided into two groups (i.e., normal group and stress group). The animal of stress group was individually brought by force to a restrainer for 2 hours every day (i.e., between 2 PM and 4 PM) so that it was applied with chronic immobilization stress for 15 days. Change in bodyweight and food intake amount were measured every other day. The normal group and stress group were divided again into a normal diet group and a tyrosine-supplemented diet group (181.2 mg/kg), and then fed.
(ELISA stands for enzyme-linked immunosorbent assay.)

Experiment [5] has the same test system. In words: ROS/RNS in plasma and PFC, chronic immobilization stress. Type of experiment: in vivo, mouse. To be noted: tyrosine diet (181.2 mg/kg) compared to normal diet. As for the experimental part:
as §1

Entries after “also recorded” stand apart in the source; their conditions may differ.

T1 sequence (P15105 2-373 limits assumed): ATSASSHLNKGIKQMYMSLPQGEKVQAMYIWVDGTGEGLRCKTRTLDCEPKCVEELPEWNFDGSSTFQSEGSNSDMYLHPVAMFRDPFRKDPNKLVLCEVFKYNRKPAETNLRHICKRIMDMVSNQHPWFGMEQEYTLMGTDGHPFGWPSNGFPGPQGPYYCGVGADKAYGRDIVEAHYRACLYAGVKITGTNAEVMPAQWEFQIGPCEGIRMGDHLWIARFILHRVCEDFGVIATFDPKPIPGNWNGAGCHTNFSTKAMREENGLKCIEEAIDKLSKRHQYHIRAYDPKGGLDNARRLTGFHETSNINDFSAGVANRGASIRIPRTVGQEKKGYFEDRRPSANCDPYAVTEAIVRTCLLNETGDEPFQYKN

Take `N[C@@H](Cc1ccc(O)cc1)C(=O)O` [L-tyrosine]: the “blood glucose, glucose tolerance test” value in experiment [1] is given as “statistically significant decrease in blood glucose amount”.
`N[C@@H](Cc1ccc(O)cc1)C(=O)O` [tyrosine]: the infarct volume result in experiment [2] is given as “infarct volume is reduced”. Besides, the “in vitro GS activity” value in experiment [3] is on record as “statistically significant increase in GS activity; also recorded: higher GS activity is obtained in accordance with an increase in the tyrosine concentration”. In addition, in experiment [4], the “corticosterone amount in plasma” value is recorded as “statistically significant decrease in corticosterone amount”. Besides, in experiment [5], the “ROS/RNS in PFC tissues” value is recorded as “statistically significant decrease in ROS/RNS” and the ROS/RNS in plasma entry is reported as “statistically significant decrease in ROS/RNS”.
